The numbers were not newly measured in patent publication EP4101443A1, “HOT-MELT COATED PARTICLES WITH PH-DEPENDENT RELEASE” (HERMES PHARMA GmbH, priority 2021, dated 2022), which cites them from elsewhere.

Molecules are shown by their SMILES. ≈ marks a conversion by molar mass, not a printed value.

Usually solubility stands for how much of the substance goes into solution per volume. For the compound `CC(=O)Oc1ccccc1C(=O)O` [ASA, acetylsalicylic acid], the solubility was 2.24 mg/mL (≈ 12.4 mM).
Take `CC(=O)N[C@@H](CS)C(=O)O` [NAC, N-acetylcysteine]: the solubility is 200 mg/mL (≈ 1230 mM).
